From patent US20250145600A1, “2-((4-((S)-2-(4-CHLORO-2-FLUOROPHENYL)-2-METHYLBENZO[D][1,3]DIOXOL-4-YL)PIPERIDIN-1-YL)METHYL)-1-(((S)-OXETAN-2-YL)METHYL)-1H-IMIDAZOLE DERIVATIVES AS ACTIVATORS OF THE GLP1 RECEPTOR FOR THE TREATMENT OF OBESITY” (Novartis AG, priority 2022, published 2025)
pEC50: −log10 of the molar value.

Molecular target: human GLP1R (hGLP1R) (Homo sapiens, UniProt P43220)
Assay: Human GLP1R cAMP agonist assay (GloSensor cAMP Assay)
Format: cell-based
Details: HEK293-SNAP-hGLP1R-GloSensor cells; for Emax: cAMP activity as percent of GLP1 (7-36) EC100 control; for pEC50: intracellular cAMP, 12 min at rt
Method: Compounds of formula (I) according to the invention were tested in the following cellular assays that measure the intracellular cAMP concentration, beta-arrestin recruitment and receptor internalization. The cAMP is generated by the activation of GLP1R. The extent to which the GLP1R is internalized into the cell and away from the plasma membrane following activation is also shown in Table 2. EC50 for each assay is defined as the concentration of the compound that leads to half of the maximum response (after baseline correction). Emax is defined as the maximum response observed for the test compound, normalized to the maximum response observed for the endogenous ligand (GLP1(7-36)) to GLP1R.
Human GLP1R cAMP Agonist Assay
The agonist activity of compounds was determined using the GloSensor™ cAMP Assay (Promega Corp.), which measures changes in the intracellular concentration of cAMP after ligand activation of GPCRs. The assay uses a biosensor encoded by pGloSensor™-22F cAMP plasmid (Promega, cat #E2301) with cAMP binding domains fused to a mutant form of Photinus pyralis luciferase. Binding to cAMP causes conformational changes that promote large increases in light output, which can be measured by a luminescence detector. HEK293-SNAP-hGLP1R-GloSensor cells stably overexpressing the human GLP1 receptor (hGLP1R) and pGloSensor™-22F were seeded in white 384-well poly-D-Lysine coated plates (Greiner Bio One, cat #781945) in CO2-independent media (Gibco cat #18045-088 with 1.0% FBS, 2 mM L-glutamine, penicillin and streptomycin) and incubated overnight at 37° C., 5% CO2 with humidity. The assay was started the following morning by adding an equal volume of CO2-independent media containing 4% v/v dilution of the GloSensor substrate (Promega, cat #E1291) to all wells. The cell plate was incubated at rt for 2 h in the dark. The Biomek 7 (Beckman Coulter) instrument was used for the liquid handling steps. To generate duplicate dose response curves, 3-fold serially diluted compounds were added in to the cell assay plate to a final volume of 60 μL with final concentrations ranging from 30 μM through 0.06 μM in CO2-independent media containing 0.1% BSA, 0.5 mM IBMX and 0.4% DMSO. In the same plate and assay buffer as the tested compounds, were EC100 control wells containing GLP1 (7-36) peptide (Bachem, cat #H-6795) at a final concentration of 2 nM and also EC0 control wells containing no peptide. This plate was incubated at rt in the dark for 12 min after adding the compounds to the cells. Luminescence was then measured with an Envision 2104 Multilabel reader with “TRF Light Unit, 337 nm” (PerkinElmer) using the Ultra-Sensitive protocol setting “384-well US luminescence detector” with the 384-well luminescence aperture, 0.1 seconds per well. cAMP activity was calculated as percent of the GLP1 (7-36) EC100 control wells: [(sample signal−mean EC0 signal)/(mean EC100 of GLP1 (7-36) signal−mean EC0 signal)}*100. Curve fitting for EC50 determinations was performed in the Helios module of the software package DAVID. The 4-parameter logistic model, Hill slope was used: y=Ainf+(A0−Ainf)/(1+(x/AC50)^Hill Slope) where y is the functional response; x is the compound concentration; A0 is the minimum value (at 0 dose); Ainf is the maximum value (at infinite dose); AC50 corresponds to the point of inflection (i.e. the point on the sigmoid shaped curve halfway between A0 and Ainf). The EC50 value was represented by the AC50 value calculated from Helios in μM. Emax is the maximal activity detected within the concentration range, derived from the fitted curve.
327 μL of Opti-MEM medium (Gibco, cat #31985-062) were mixed with 12 μL of FuGENE® HD (Promega, cat #E2311) and incubated at rt for 5 min. Then 8.2 μL (4 μg, 0.485 μg/μL solution) of pSNAP-hGLP1R plasmid (Cisbio, cat #PSNAP-GLP1) encoding human GLP1R (NCBI Reference Sequence: NM_002062.3) fused with Cisbio's SNAP tag was added in to the Fugene HD/Opti-MEM mix, and incubated at rt for 20 min. […]

human GLP1R (hGLP1R), sequence (P43220 24-463): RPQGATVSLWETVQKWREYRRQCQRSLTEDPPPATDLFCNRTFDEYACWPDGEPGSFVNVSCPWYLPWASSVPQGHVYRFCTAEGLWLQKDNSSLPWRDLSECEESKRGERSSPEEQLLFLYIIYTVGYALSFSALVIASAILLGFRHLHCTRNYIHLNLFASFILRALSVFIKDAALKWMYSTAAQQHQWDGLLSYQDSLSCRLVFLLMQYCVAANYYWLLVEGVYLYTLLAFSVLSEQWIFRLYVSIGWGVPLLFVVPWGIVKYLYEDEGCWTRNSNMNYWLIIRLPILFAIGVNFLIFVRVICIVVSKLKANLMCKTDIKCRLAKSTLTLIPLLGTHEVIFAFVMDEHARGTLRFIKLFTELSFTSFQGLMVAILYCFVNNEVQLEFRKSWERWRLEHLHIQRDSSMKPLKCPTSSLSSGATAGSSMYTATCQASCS

SMILES | Emax [%] | pEC50
Cc1nc(CN2CCC(c3cccc4c3O[C@@](C)(c3ccc(Cl)cc3F)O4)CC2)n(C[C@H]2CCO2)c1-c1nc(C(=O)O)co1 [Compound C-3, 2-(2-((4-((S)-2-(4-chloro-2-fluorophenyl)-2-methylbenzo[d][1,3]dioxol-4-yl)piperidin-1-yl)methyl)-4-methyl-1-(((R)-oxetan-2-yl)methyl)-1H-imidazol-5-yl)oxazole-4-carboxylic acid] | 105 | 10.32
Cc1nc(CN2CCC(c3cccc4c3O[C@@](C)(c3ccc(Cl)cc3F)O4)CC2)n(C[C@@H]2CCO2)c1-c1ccc(C(=O)O)o1 [Compound C-22, 5-(2-((4-((S)-2-(4-chloro-2-fluorophenyl)-2-methylbenzo[d][1,3]dioxol-4-yl)piperidin-1-yl)methyl)-4-methyl-1-(((S)-oxetan-2-yl)methyl)-1H-imidazol-5-yl)furan-2-carboxylic acid] | 119 | 9.46
Cc1nc(CN2CCC(c3cccc4c3O[C@@](C)(c3ccc(C#N)cc3F)O4)CC2)n(C[C@@H]2CCO2)c1-c1nc(C(=O)O)c(C)o1 [Compound C-11, 2-(2-((4-((S)-2-(4-cyano-2-fluorophenyl)-2-methylbenzo[d][1,3]dioxol-4-yl)piperidin-1-yl)methyl)-4-methyl-1-(((S)-oxetan-2-yl)methyl)-1H-imidazol-5-yl)-5-methyloxazole-4-carboxylic acid] | 105 | 10.37
CCc1nc(CN2CCC(c3cccc4c3O[C@@](C)(c3ccc(Cl)cc3F)O4)CC2)n(C[C@H]2CCO2)c1-c1ncc(C(=O)O)o1 [Compound C-8, 2-(2-((4-((S)-2-(4-chloro-2-fluorophenyl)-2-methylbenzo[d][1,3]dioxol-4-yl)piperidin-1-yl)methyl)-4-ethyl-1-(((R)-oxetan-2-yl)methyl)-1H-imidazol-5-yl)oxazole-5-carboxylic acid] | 101 | 9.45
CCc1nc(CN2CCC(c3cccc4c3O[C@@](C)(c3ccc(Cl)cc3F)O4)CC2)n(C[C@@H]2CCO2)c1-c1ncc(C(=O)O)o1 [Compound C-6, 2-(2-((4-((S)-2-(4-chloro-2-fluorophenyl)-2-methylbenzo[d][1,3]dioxol-4-yl)piperidin-1-yl)methyl)-4-ethyl-1-(((S)-oxetan-2-yl)methyl)-1H-imidazol-5-yl)oxazole-5-carboxylic acid] | 123 | 9.33
Cc1nc(CN2CCC(c3cccc4c3O[C@@](C)(c3ccc(Cl)cc3F)O4)CC2)n(C[C@H]2CCO2)c1-c1ncc(C(=O)O)o1 [Compound C-2, 2-(2-((4-((S)-2-(4-chloro-2-fluorophenyl)-2-methylbenzo[d][1,3]dioxol-4-yl)piperidin-1-yl)methyl)-4-methyl-1-(((R)-oxetan-2-yl)methyl)-1H-imidazol-5-yl)oxazole-5-carboxylic acid] | 108 | 9.83
Cc1nc(-c2nc(CN3CCC(c4cccc5c4O[C@@](C)(c4ccc(Cl)cc4F)O5)CC3)n(C[C@@H]3CCO3)c2C)oc1C(=O)O [Compound C-15, 2-(2-((4-((S)-2-(4-chloro-2-fluorophenyl)-2-methylbenzo[d][1,3]dioxol-4-yl)piperidin-1-yl)methyl)-5-methyl-1-(((S)-oxetan-2-yl)methyl)-1H-imidazol-4-yl)-4-methyloxazole-5-carboxylic acid] | 103 | 9.95
Cc1c(-c2cncc(C(=O)O)c2)nc(CN2CCC(c3cccc4c3O[C@@](C)(c3ccc(Cl)cc3F)O4)CC2)n1C[C@@H]1CCO1 [Compound C-23, 5-(2-((4-((S)-2-(4-chloro-2-fluorophenyl)-2-methylbenzo[d][1,3]dioxol-4-yl)piperidin-1-yl)methyl)-5-methyl-1-(((S)-oxetan-2-yl)methyl)-1H-imidazol-4-yl)nicotinic acid] | 106 | 
